Source: ChEMBL document CHEMBL5260832, “Hepatoprotective natural triterpenoids” (Eur J Med Chem, 2018)

How the values were obtained:
Mus musculus [1] = experiment: Hepatoprotective activity against D-GaIN/LPS induced liver injury mouse model assessed as reduction in sALT at 100 mg/kg, ip relative to control; assay type: functional; design: scale not given: the % may be the effect or the level left
Mus musculus [2] = experiment: Hepatoprotective activity against D-GaIN/LPS induced liver injury mouse model assessed as reduction in sAST at 100 mg/kg, ip relative to control; assay type: functional; design: scale not given: the % may be the effect or the level left
Hepatocyte [3] = experiment: Hepatoprotective activity against D-GaIN/TNFalpha-induced cell death in mouse hepatocyte at 100 uM; assay type: functional, cell-based
[4] = Hepatotoxicity in D-GaIN induced Wistar rat assessed as change in GTP leakage level for 10 days relative to control; assay type: toxicity; conditions: in vivo, 240 h, time 10 day
[5] = Hepatotoxicity in D-GaIN induced Wistar rat assessed as change in induction of TAT level for 10 days relative to control; assay type: toxicity; design: concentration or dose not given beside the values; conditions: in vivo, 240 h, time 10 day
Hepatocyte [6] = experiment: Hepatoprotective activity against D-GaIN/TNFalpha-induced cell death in mouse hepatocyte at 100 uM relative to control; assay type: functional, cell-based; conditions: dose 100 µM
Hepatocyte [7] = experiment: Hepatoprotective activity against D-GaIN/TNFalpha-induced cell death in mouse hepatocyte at 25 uM relative to control; assay type: functional
L02 [8] = experiment: Protection against D-GalN-induced toxicity in L02 cells […] assessed as reduction in cell growth relative to control; assay type: functional, Homo sapiens; design: scale not given: the % may be the effect or the level left
L02 [9] = experiment: Hepatoprotective activity against D-GaIN-induced in human HL7702 cells assessed as cell damage at 10 uM relative to control; assay type: functional
HepG2 [10] = experiment: Hepatoprotective activity against H2O2-induced cell death in human HepG2 cells assessed as reduction in ALT level at 20 uM preincubated for 1 hr followed by H2O2-stimulation and measured after 24 hrs; assay type: functional
HepG2 [11] = experiment: Hepatoprotective activity against H2O2-induced cell death in human HepG2 cells assessed as reduction in AST level at 20 uM preincubated for 1 hr followed by H2O2-stimulation and measured after 24 hrs; assay type: functional
Mus musculus [12] = species: Mus musculus; experiment: Hepatoprotective activity in mouse liver homogenate assessed as inhibition of iron/ascorbate lipid peroxidation at 5.0 mg/mL relative to control; assay type: functional; design: scale not given: the % may be the effect or the level left
Mus musculus [13] = species: Mus musculus; experiment: Hepatoprotective activity in mouse liver homogenate assessed as inhibition of iron/ascorbate lipid peroxidation at 0.1 mg/mL relative to control; assay type: functional; design: scale not given: the % may be the effect or the level left
Mus musculus [14] = species: Mus musculus; experiment: Hepatoprotective activity against D-GaIN/LPS induced liver injury mouse model assessed as increase in sALT relative to control; assay type: functional
Mus musculus [15] = species: Mus musculus; experiment: Hepatoprotective activity against D-GaIN/LPS induced liver injury mouse model assessed as increase in sAST relative to control; assay type: functional
Hepatocyte [16] = experiment: Hepatoprotective activity against D-GaIN induced liver injury in rat hepatocyte assessed as decrease in ALT level at 30 to 120 uM; assay type: functional; conditions: dose 30-120 µM
Hepatocyte [17] = experiment: Hepatoprotective activity against D-GaIN induced liver injury in rat hepatocyte assessed as decrease in LDH level at 30 to 120 uM; assay type: functional; conditions: dose 30-120 µM
[18] = Hepatotoxicity in D-GaIN induced in Wistar rat model hepatocyte assessed as reduction in PLA2 level; assay type: toxicity, cell-based
[19] = Hepatotoxicity in rat hepatocyte assessed as change in GSH level at 30 microg/mL relative to control; assay type: toxicity, cell-based; conditions: hepatocytes, at 30 µg/mL
Hepatocyte [20] = experiment: Hepatoprotective activity against D-GaIN-induced toxicity in mouse hepatocyte relative to control; assay type: functional, cell-based
Mus musculus [21] = experiment: Hepatoprotective activity against D-GaIN/CCl4 induced liver injury mouse model assessed as reduction in GPT level at 30 microg/kg, iv relative to control; assay type: functional; design: scale not given: the % may be the effect or the level left; conditions: dose 30 µg/kg

CC(C)=CCC[C@](C)(O)C1CC[C@]2(C)[C@@H]1[C@H](O[C@H]1O[C@@H](CO[C@H]3O[C@@H](CO)[C@H](O)[C@@H](O)[C@@H]3O)[C@H](O)[C@@H](O)[C@@H]1O)C[C@@H]1[C@@]3(C)CC[C@H](O[C@@H]4O[C@H](CO)[C@@H](O)[C@H](O)[C@H]4O[C@@H]4O[C@H](CO)[C@@H](O)[C@H](O)[C@H]4O)C[C@@H]3CC[C@]12C (some centres not stated)
Activity (Mus musculus [1]): 33% | Activity (Mus musculus [2]): 40%

CC1=C2C3=CC[C@@H]4[C@@]5(C)C[C@@H](O)[C@H](O)[C@@](C)(CO)[C@@H]5CC[C@@]4(C)[C@]3(C)CC[C@@]2(C(=O)O[C@@H]2O[C@H](CO)[C@@H](O)[C@H](O)[C@H]2O)CC[C@H]1C
IC50 (Hepatocyte [3]): 34.6 µM

C[C@H]1[C@H](C)CC[C@@]2(C)[C@@H]1C1=CC[C@@H]3[C@@]4(C)CC[C@@H](O)C(C)(C)[C@@H]4CC[C@@]3(C)[C@]1(C)C[C@@H]2O
Activity [4]: 22.7% | Activity [5]: 48%

CC1(C)CC[C@]2(C(=O)O)CC[C@]3(C)[C@H](C=C[C@@H]4[C@@]5(C)C[C@@H](O)[C@H](O)C(C)(C)[C@@H]5CC[C@]43C)[C@H]2[C@@H]1O
Activity (Hepatocyte [6]): 32.9% | Activity (Hepatocyte [7]): 15.4%

CC(C)(O)[C@@H]1CC[C@@H]([C@H]2[C@H](O)C[C@]3(C)[C@@H]2CC[C@@H]2[C@@]4(C)CC[C@H](O[C@@H]5O[C@H](CO)[C@@H](O)[C@H](O)[C@H]5O[C@@H]5O[C@H](CO)[C@@H](O)[C@H](O)[C@H]5O)C(C)(C)[C@@H]4CC[C@]23C)O1
Activity (L02 [8]): 69.5%

CC(C)=CCC[C@H](C(=O)O)[C@@H]1CC[C@]2(C)C3=C(CC[C@@]12C)[C@@]1(C)CC[C@H](O)C(C)(C)[C@@H]1CC3
Activity (L02 [9]): 50.5%

C=C(C)[C@@H]1C[C@H](O)C2=C(C(=O)C[C@]3(C)[C@@H]([C@H](C)CCC(=O)OC)CC[C@@]23C)[C@@]1(C)CCC(=O)OC
Activity (HepG2 [10]): 16.06 U/L | Activity (HepG2 [11]): 19.09 U/L

CC1(C)CC[C@]2(C(=O)O)CC[C@]3(C)[C@H](C=C[C@@H]4[C@@]5(C)C[C@@H](O)[C@H](O)C(C)(C)[C@@H]5[C@H](O)C[C@]43C)[C@H]2[C@@H]1O
Activity (Hepatocyte [6]): 24.4% | Activity (Hepatocyte [7]): 15.4%

C[C@H]1[C@H](C)CC[C@@]2(C)[C@@H]1C1=CC[C@@H]3[C@@]4(C)CC[C@H](O)C(C)(C)[C@@H]4CC[C@@]3(C)[C@]1(C)C[C@@H]2O
Activity [4]: 46.7% | Activity [5]: 39.8%

CC1(C)CC[C@]2(C(=O)O)CC[C@]3(C)C(=CC[C@@H]4[C@@]5(C)C[C@@H](O)[C@@H](O)C(C)(C)[C@@H]5CC[C@]43C)[C@@H]2C1
Activity (Mus musculus [12]): 52.7% | Activity (Mus musculus [13]): 16.8%

CC(C)=CCC[C@](C)(O[C@@H]1O[C@H](CO)[C@@H](O)[C@H](O)[C@H]1O)[C@H]1CC[C@]2(C)[C@@H]1[C@H](O)C[C@@H]1[C@@]3(C)CC[C@H](O)C(C)(C)[C@@H]3[C@@H](O[C@@H]3O[C@H](CO)[C@@H](O)[C@H](O)[C@H]3O)C[C@]12C [GINSENOSIDE RG1]
Activity (Mus musculus [14]): 30% | Activity (Mus musculus [15]): 12%

C=C(C)[C@@H]1C[C@H](O)C2=C(C(=O)C[C@]3(C)[C@@H]([C@H](C)CCC(=O)O)CC[C@@]23C)[C@@]1(C)CCC(=O)O
Activity (HepG2 [10]): 16.06 U/L | Activity (HepG2 [11]): 19.09 U/L

C=C(C)[C@@H]1C[C@H](O)C2=C(C(=O)C[C@]3(C)[C@@H]([C@H](C)CCC(=O)O)CC[C@@]23C)[C@@]1(C)CCC(=O)OC
Activity (HepG2 [10]): 16.06 U/L | Activity (HepG2 [11]): 19.09 U/L

CC1(C)[C@@H](O[C@H]2O[C@H](C(=O)O)[C@@H](O)[C@H](O)[C@H]2O[C@@H]2O[C@H](C(=O)O)[C@@H](O)[C@H](O)[C@H]2O)CC[C@]2(C)[C@H]3C(=O)C=C4[C@@H]5C[C@@](C)(C(=O)O)CC[C@]5(C)CC[C@@]4(C)[C@]3(C)CC[C@@H]12 [GLYCYRRHIZIN]
Activity (Hepatocyte [16]): 17.1 U/L | Activity (Hepatocyte [17]): 253.5 U/L | IC50 [18]: 9.3 µM

C=C(C)[C@@H]1CC[C@]2(C(=O)O)CC[C@]3(C)[C@H](CC[C@@H]4[C@@]5(C)C[C@@H](O)[C@H](O)C(C)(C)[C@@H]5CC[C@]43C)[C@@H]12
Activity (Mus musculus [13]): 13.7%

C[C@H]1O[C@@H](O[C@H]2CC[C@@]3(C)[C@@H](CC[C@]4(C)[C@@H]3[C@H](O)C[C@@H]3C5=CC(C)(C)CC[C@]5(CO)[C@@H](O)C[C@]34C)[C@]2(C)CO)[C@H](O)[C@@H](O[C@@H]2O[C@H](CO)[C@@H](O)[C@H](O)[C@H]2O)[C@H]1O
Activity [19]: 64.7%

CC1(C)CC[C@@]2(C)[C@H](C1)C1=CC[C@@H]3[C@@]4(C)CC[C@@H](O)C(C)(C)[C@@H]4CC[C@@]3(C)[C@]1(C)C[C@@H]2O
Activity [5]: 5.3%

CO[C@@H]1C=C2[C@@H]3CC(C)(C)CC[C@]3(CO)[C@@H](O)C[C@@]2(C)[C@]2(C)CC[C@H]3C(C)(C)[C@@H](O[C@@H]4O[C@H](C)[C@H](O)[C@H](O[C@@H]5O[C@H](CO)[C@@H](O)[C@H](O)[C@H]5O)[C@H]4O)CC[C@]3(C)[C@@H]12
Activity [19]: 75%

CC(C)[C@]1(CO)CC[C@@H]([C@H]2[C@H](O)C[C@]3(C)[C@@H]2CC[C@@H]2[C@@]4(C)CC[C@H](O[C@@H]5O[C@H](CO)[C@@H](O)[C@H](O)[C@H]5O[C@@H]5O[C@H](CO)[C@@H](O)[C@H](O)[C@H]5O)C(C)(C)[C@@H]4CC[C@]23C)O1
Activity (L02 [8]): 22.2%

CC(C)=C[C@H]1C[C@@H]([C@@H]2CC[C@]3(C)C4=CC(=O)[C@H]5C(C)(C)[C@H](O)CC[C@]5(C)[C@H]4CC[C@@]23C)C(=O)O1
Activity (L02 [9]): 30.4%

CC(C)=CCC[C@H](C(=O)O)[C@@H]1CC[C@]2(C)C3=C(CC[C@@]12C)[C@@]1(C)CC[C@@H](O)C(C)(C)[C@@H]1CC3
Activity (L02 [9]): 30.1%

C[C@H]1O[C@@H](O[C@H]2CC[C@@]3(C)[C@@H](CC[C@]4(C)[C@@H]3C(=O)C=C3[C@@H]5CC(C)(C)CC[C@]5(CO)[C@@H](O)C[C@]34C)[C@]2(C)CO)[C@H](O)[C@@H](O[C@@H]2O[C@H](CO)[C@@H](O)[C@H](O)[C@H]2O)[C@H]1O
Activity [19]: 90.9%

CC(C)=CC[C@@H](O)[C@@H](C)[C@H]1CC[C@@]2(C)C3=CC[C@H]4C(C)(C)[C@@H](O)CC[C@]4(C)C3=CC[C@]12C
Activity (HepG2 [10]): 23.22 U/L | Activity (HepG2 [11]): 32.36 U/L

CC(C)=CCC[C@H](C(=O)O)[C@@H]1CC[C@]2(C)C3=C(CC[C@@]12C)[C@@]1(C)CCC(=O)C(C)(C)[C@@H]1CC3=O
Activity (L02 [9]): 25.6%

C[C@]1(C(=O)O)CC[C@]2(C)CC[C@]3(C)C(=CC(=O)[C@@H]4[C@@]5(C)CC[C@H](O[C@@H]6O[C@H](C(=O)O)[C@@H](O)[C@H](O)[C@H]6O[C@@H]6O[C@H](C(=O)O)[C@@H](O)[C@H](O)[C@H]6O)[C@](C)(CO)[C@@H]5CC[C@]43C)[C@@H]2C1
Activity (Hepatocyte [16]): 17.1 U/L | Activity (Hepatocyte [17]): 253.5 U/L | IC50 [18]: 6.9 µM

CC1(C)CC[C@]2(C(=O)O)CC[C@]3(C)[C@H](C=C[C@@H]4[C@@]5(C)C[C@@H](O)[C@H](O)[C@](C)(CO)[C@@H]5CC[C@]43C)[C@H]2C1
Activity (Hepatocyte [6]): 108.4% | Activity (Hepatocyte [7]): 15.4%

C[C@@H]1CC[C@]2(C(=O)O)CC[C@]3(C)C(=CC[C@@H]4[C@@]5(C)C[C@@H](O)[C@H](O)C(C)(C)[C@@H]5CC[C@]43C)[C@@H]2[C@]1(C)O [TOMENTIC ACID]
IC50 (Hepatocyte [20]): 9.5 µM

C[C@H]1O[C@@H](O[C@H]2CC[C@@]3(C)[C@@H](CC[C@]4(C)[C@@H]3[C@H](O)C=C3[C@@H]5CC(C)(C)CC[C@]5(CO)[C@@H](O)C[C@]34C)[C@]2(C)CO)[C@H](O)[C@@H](O[C@@H]2O[C@H](CO)[C@@H](O)[C@H](O)[C@H]2O)[C@H]1O
Activity [19]: 46.5%

CC(C)=CCC[C@](C)(O)[C@H]1CC[C@]2(C)[C@@H]1[C@H](O)C[C@@H]1[C@@]3(C)CC[C@H](O)C(C)(C)[C@@H]3[C@@H](O[C@@H]3O[C@H](CO)[C@@H](O)[C@H](O)[C@H]3O)C[C@]12C [GINSENOSIDE RH1]
Activity (Mus musculus [14]): 93% | Activity (Mus musculus [15]): 90% | Activity (Mus musculus [21]): 72%
